Values joined by “and” are separate entries in the source; they are usually repeats but may differ in a detail not shown here. Identical values can stand only once.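 Five concentrations, 48 hours, 96-well plates. The concentration for 50% growth inhibition is given as GI50. TGI: total growth inhibition.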 Where only a bound is given, the exact number is not on record here.

Test systems include RXF-631 renal; DLD-1 colon; DMS 273 small cell lung; XF 498 CNS; HOP-18 NSCLC; M19-MEL melanoma; DMS 114 small cell lung; P388 leukemia; SN12K1 renal; BT-549 breast; P388/ADR leukemia; MDA-N.
Common to all, as to assay: NCI tumour cell line growth inhibition, 48 h

In the case of `CCOC(=N)CC(=O)Nc1ccccc1CC`, the TGI with RXF-631 renal, in the experiment with DLD-1 colon, with DMS 273 small cell lung, with XF 498 CNS, in the experiment on HOP-18 NSCLC and in the experiment with M19-MEL melanoma was greater than 100 µM in each case.

Take `CNC(=O)NCCCCC(NC(C)=O)C(=O)NCc1ccccc1` (stereo unspecified): the TGI in the experiment on RXF-631 renal, in the experiment with DLD-1 colon, in the experiment with DMS 273 small cell lung, with XF 498 CNS, in the experiment with M19-MEL melanoma and in the experiment with DMS 114 small cell lung was greater than 100 µM throughout.

Turning to `O=C(Nc1ccccc1)N1C(c2ccccc2)=N[C@@H](c2ccccc2)[C@@H]1c1ccccc1`, the TGI with RXF-631 renal stood at 79 µM; in the experiment with DLD-1 colon it was 35.6 µM; in the experiment with HOP-18 NSCLC, 50.7 µM; in the experiment on M19-MEL melanoma, 38.7 µM; with DMS 114 small cell lung it was 29.9 µM.

In the case of `COc1ccccc1/C=C(\NC(=O)c1ccccc1)c1nc2ccccc2[nH]1`, the TGI with RXF-631 renal, in the experiment on DLD-1 colon, with XF 498 CNS, in the experiment on HOP-18 NSCLC, in the experiment with M19-MEL melanoma and in the experiment on DMS 114 small cell lung was greater than 100 µM each time.

On to `Cc1cccc(C=NC23CC4CC(CC(C4)C2)C3)c1`, for which the TGI in the experiment with DLD-1 colon, in the experiment with DMS 273 small cell lung, in the experiment with XF 498 CNS, in the experiment on HOP-18 NSCLC, in the experiment on M19-MEL melanoma and in the experiment with DMS 114 small cell lung was greater than 100 µM throughout.

Take `Cc1c(-c2ccc(-c3ccccc3F)cc2)nc2ccc(F)cc2c1C(=O)O`: the GI50 in the experiment on DLD-1 colon is 1.58 µM; with DMS 273 small cell lung, 0.5 µM; with P388 leukemia, 0.5 µM; in the experiment on XF 498 CNS, 106 µM; with BT-549 breast, 17.4 µM and 57.4 µM; with P388/ADR leukemia, 0.5 µM. In addition, the GI50 is 57 µM with HOP-18 NSCLC; 0.979 µM and 0.762 µM with MDA-N. Moreover, the TGI is 146 µM and 1040 µM in the experiment with DLD-1 colon; 29.3 µM and 89.9 µM in the experiment on DMS 273 small cell lung; 89.8 µM and 106 µM in the experiment with P388 leukemia; 70.9 µM in the experiment with SN12K1 renal; 164 µM and 230 µM with XF 498 CNS; 137 µM and 849 µM in the experiment on BT-549 breast. Moreover, the TGI in the experiment on P388/ADR leukemia is 60 µM and 125 µM; in the experiment with HOP-18 NSCLC, 192 µM and 182 µM; with M19-MEL melanoma, 153 µM.

With `C/C(=C\c1ccccc1)C(=O)c1c(C)cc(C)cc1C`, the TGI with DLD-1 colon, in the experiment on XF 498 CNS, with HOP-18 NSCLC, in the experiment on M19-MEL melanoma and in the experiment on DMS 114 small cell lung was greater than 100 µM throughout.

As to `O=C1N=C2N=C(c3ccc(Cl)cc3)N(c3ccc(Cl)cc3)N2Sc2ccccc21`, the TGI in the experiment on DLD-1 colon is greater than 100 µM; with DMS 273 small cell lung, greater than 100 µM; in the experiment with XF 498 CNS it was 99.4 µM; in the experiment with HOP-18 NSCLC it was greater than 100 µM; in the experiment on M19-MEL melanoma, greater than 100 µM; in the experiment on DMS 114 small cell lung it was greater than 100 µM.

For `CCOC(=O)C(Cc1cc(OC)c(CC(C(=O)OCC)C(=O)OCC)cc1OC)C(=O)OCC`, the TGI in the experiment with DLD-1 colon was greater than 100 µM; in the experiment on DMS 273 small cell lung, greater than 100 µM; in the experiment on XF 498 CNS, 53.7 µM; in the experiment on BT-549 breast it was greater than 100 µM; in the experiment on MDA-N, greater than 100 µM; in the experiment on M19-MEL melanoma, greater than 100 µM. The TGI with DMS 114 small cell lung is greater than 100 µM.

As for `C[C@]12CC[C@H](OC(=O)Nc3ccccc3)CC1=CC[C@@H]1C2CC[C@]2(C)/C(=N/OC(=O)Nc3ccccc3)CCC12` (stereo partly specified), the TGI in the experiment with RXF-631 renal was greater than 100 µM; in the experiment with DMS 273 small cell lung, greater than 100 µM; in the experiment with XF 498 CNS it was 3.19 µM; in the experiment on HOP-18 NSCLC, 37.9 µM; in the experiment with M19-MEL melanoma, greater than 100 µM; in the experiment on DMS 114 small cell lung it was greater than 100 µM.

Turning to `COC(OC)c1cccnc1C`, the TGI with RXF-631 renal, with DLD-1 colon, with DMS 273 small cell lung, with XF 498 CNS, with HOP-18 NSCLC and in the experiment with M19-MEL melanoma was greater than 100 µM each time. The TGI in the experiment with DMS 114 small cell lung was greater than 100 µM.

Consider `O=C1C(=O)N(c2cc(Cl)ccc2Cl)C(=O)C(=O)C1c1nc2ccccc2s1`, for which the TGI in the experiment on DLD-1 colon, with DMS 273 small cell lung, with XF 498 CNS, in the experiment on M19-MEL melanoma and with DMS 114 small cell lung was greater than 100 µM each time.

For `c1ccc(N2CCN(CCN3CCc4c([nH]c5ccccc45)C3c3cccnc3)CC2)cc1` (stereo unspecified), the TGI in the experiment on RXF-631 renal, with DLD-1 colon, with DMS 273 small cell lung, in the experiment on XF 498 CNS, with HOP-18 NSCLC and in the experiment on M19-MEL melanoma was greater than 100 µM each time. This compound also displayed a TGI with DMS 114 small cell lung greater than 100 µM.

For the compound `O=C(O)C1CC2C=CCC(C2)C1` (stereo unspecified), the TGI in the experiment on DLD-1 colon, in the experiment with DMS 273 small cell lung, with XF 498 CNS, in the experiment on HOP-18 NSCLC, with M19-MEL melanoma and in the experiment with DMS 114 small cell lung was greater than 100 µM in each case.

As for `O=C(NCCCN1CCN(CCCNC(=O)Nc2cc(Cl)ccc2Cl)CC1)Nc1cc(Cl)ccc1Cl`, the TGI in the experiment on DLD-1 colon, in the experiment with DMS 273 small cell lung, in the experiment on XF 498 CNS, in the experiment with HOP-18 NSCLC and in the experiment on DMS 114 small cell lung was greater than 100 µM in each case.

Take `O=S1(=O)CCC2=CC(C(F)(F)F)=CC(C(F)(F)F)=CN21`: the TGI in the experiment on RXF-631 renal amounted to 3.89 µM; in the experiment with DLD-1 colon, 1.77 µM; in the experiment on XF 498 CNS, 3.42 µM; in the experiment with BT-549 breast, 6.1 µM; in the experiment with HOP-18 NSCLC, 8.27 µM; in the experiment with MDA-N, 35.7 µM. Further, the TGI amounted to 3.08 µM in the experiment on M19-MEL melanoma and 3.32 µM in the experiment with DMS 114 small cell lung.

For `CN(C)C(=S)/N=c1\ssc(=Nc2ccccc2)n1-c1ccccc1`, the TGI was greater than 100 µM in the experiment with RXF-631 renal; greater than 100 µM in the experiment on DLD-1 colon; 48.5 µM with DMS 273 small cell lung; greater than 100 µM with HOP-18 NSCLC; greater than 100 µM in the experiment with M19-MEL melanoma; 29.8 µM with DMS 114 small cell lung.

With `C=C(c1ccccc1)c1cc2c(=O)[nH]ccc2n1C`, the TGI with DLD-1 colon was greater than 100 µM; in the experiment on DMS 273 small cell lung it was greater than 100 µM; with XF 498 CNS it was 91 µM; with M19-MEL melanoma it was greater than 100 µM; with DMS 114 small cell lung it was 50.1 µM.

Turning to `CCOC(=O)NN1C(=O)C(=P(c2ccccc2)(c2ccccc2)c2ccccc2)C(C(=O)OC)=C1C`, the TGI with DLD-1 colon, with DMS 273 small cell lung, with XF 498 CNS, with HOP-18 NSCLC, in the experiment on M19-MEL melanoma and in the experiment with DMS 114 small cell lung was greater than 100 µM throughout.

For the compound `COC(=O)C1=C(O)c2cc(OC)c(OC)c(OC)c2C(c2ccc3c(c2)OCO3)[C@@H]1C(=O)OC` (stereo partly specified), the TGI in the experiment with RXF-631 renal was greater than 100 µM; in the experiment on DLD-1 colon, greater than 100 µM; in the experiment with DMS 273 small cell lung, greater than 100 µM; in the experiment with HOP-18 NSCLC it was greater than 100 µM; in the experiment on DMS 114 small cell lung, 5.96 µM.

For `Nc1ccc(C(=O)N/C(=C\c2ccc3c(c2)OCO3)c2nc3ccccc3s2)cc1`, the TGI worked out at 35.1 µM with RXF-631 renal; 59.7 µM in the experiment on DLD-1 colon; 34.2 µM with DMS 273 small cell lung; 25.5 µM in the experiment on XF 498 CNS; 32.6 µM in the experiment with M19-MEL melanoma.

Turning to `COC(=O)CCC(NC(=S)N/N=C(\C)c1cccs1)C(=O)OC` (stereo unspecified), the TGI in the experiment with DLD-1 colon, with DMS 273 small cell lung, in the experiment on XF 498 CNS, in the experiment with HOP-18 NSCLC, in the experiment on M19-MEL melanoma and with DMS 114 small cell lung was greater than 100 µM throughout.

Take `CC(NC1CCCC[C@@H]1O)c1ccccc1` (stereo partly specified): the TGI in the experiment with DLD-1 colon, in the experiment on DMS 273 small cell lung, in the experiment with XF 498 CNS, in the experiment with HOP-18 NSCLC and in the experiment on M19-MEL melanoma was greater than 100 µM each time.

Source of the values: PubChem BioAssay (NCI).
